In patent publication US20130109682A1, “CYCLIC ETHER COMPOUNDS USEFUL AS KINASE INHIBITORS” (NOVARTIS AG, priority 2010, published 2013):

How the values were obtained:
PIM3 = PIM3 (Homo sapiens, UniProt Q86V86); test: Pim 3 AlphaScreen assay (high ATP); type: biochemical; conditions: read-out: Pim3 IC50
Summary of the method: (§1)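 This is a bead-based AlphaScreen run at high ATP (11-125× Km) with biotin-Bad peptide (100 nM in the substrate mix), in 50 mM Hepes pH 7.5, 5 mM MgCl2, 0.05% BSA, 0.01% Tween-20, 1 mM DTT and 2.5% DMSO final. After ~2 h the reaction was stopped with EDTA. Phospho-peptide was detected overnight with anti-phospho Ser/Thr antibody on Protein A and streptavidin beads, giving IC50.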

PIM1 = PIM1 (Homo sapiens, UniProt P11309); test: Pim 1 AlphaScreen assay (high ATP); type: biochemical; conditions: read-out: Pim1 IC50
Chain of PIM1 (P11309 whole entry): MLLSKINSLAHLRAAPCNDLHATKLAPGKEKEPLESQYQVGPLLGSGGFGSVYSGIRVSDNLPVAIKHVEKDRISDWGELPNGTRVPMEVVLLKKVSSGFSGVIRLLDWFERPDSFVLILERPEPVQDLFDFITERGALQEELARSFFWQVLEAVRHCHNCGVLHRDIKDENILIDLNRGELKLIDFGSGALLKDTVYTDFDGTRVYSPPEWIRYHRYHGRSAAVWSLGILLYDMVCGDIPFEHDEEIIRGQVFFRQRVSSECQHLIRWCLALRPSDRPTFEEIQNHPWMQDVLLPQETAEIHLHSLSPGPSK
Summary of the method: as §1

PIM2 = PIM2 (Homo sapiens, UniProt Q9P1W9); test: Pim 2 AlphaScreen assay (high ATP); type: biochemical; conditions: read-out: Pim2 IC50
Chain of PIM2 (Q9P1W9 whole entry): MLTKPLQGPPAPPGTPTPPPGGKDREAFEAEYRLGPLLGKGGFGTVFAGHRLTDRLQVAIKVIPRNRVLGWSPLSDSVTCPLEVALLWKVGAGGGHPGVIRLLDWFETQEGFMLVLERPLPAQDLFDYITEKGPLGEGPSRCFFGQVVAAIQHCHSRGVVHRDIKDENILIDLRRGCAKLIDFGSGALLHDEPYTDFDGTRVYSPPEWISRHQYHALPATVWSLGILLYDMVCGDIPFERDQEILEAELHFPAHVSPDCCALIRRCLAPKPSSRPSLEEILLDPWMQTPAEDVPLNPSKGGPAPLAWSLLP
Summary of the method: as §1

GSK3β = GSK3β (Homo sapiens, UniProt P49841); test: GSK3β ATP depletion assay; type: biochemical; conditions: ATP depletion assay; read-out: GSK3b IC50
Chain of GSK3β (P49841 whole entry, species assumed): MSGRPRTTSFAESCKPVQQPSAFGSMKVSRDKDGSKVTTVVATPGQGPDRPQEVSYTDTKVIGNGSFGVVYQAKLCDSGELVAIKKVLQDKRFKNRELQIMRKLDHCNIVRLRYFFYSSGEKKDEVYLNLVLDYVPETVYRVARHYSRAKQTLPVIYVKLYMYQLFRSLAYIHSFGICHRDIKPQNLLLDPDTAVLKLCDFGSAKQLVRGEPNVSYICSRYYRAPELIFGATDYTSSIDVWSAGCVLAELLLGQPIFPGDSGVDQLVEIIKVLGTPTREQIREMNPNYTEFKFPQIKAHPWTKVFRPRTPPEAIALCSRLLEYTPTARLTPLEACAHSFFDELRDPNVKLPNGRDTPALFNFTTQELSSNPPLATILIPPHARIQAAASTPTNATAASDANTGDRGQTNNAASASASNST
Summary of the method: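 Human GSK3β (5 nM) preincubated 15 min with 10 μM biotinylated phospho-CREB peptide in pH 7.5 Tris buffer (15 mM MgCl2, 1 mM DTT, 0.1% BSA, 2.5% DMSO). Reaction started with 2 μM ATP and run to about 50% ATP depletion. Remaining ATP measured by KinaseGlo luminescence.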

[1] = test system: KMS11 (human myeloma cell line); test: Cell proliferation assay (CellTiter-Glo), KMS11; type: cell-based; conditions: Homo sapiens, KMS-11; KMS11 cells, cell proliferation; read-out: KMS11-Luc EC50
Summary of the method: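 KMS11 cells in IMDM with 10% FBS and sodium pyruvate, seeded at 2000 cells/well on assay day. Compound added at 2× to equal volume of cells, incubated 3 days at 37° C. Viability read by CellTiter-Glo luminescence; EC50 derived.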

Row | SMILES | IC50 (PIM3) [nM] | IC50 (PIM1) [nM] | IC50 (PIM2) [nM] | IC50 (GSK3β) [nM] | EC50 [1] [nM]
1 | CNC(=O)c1ccc(F)c(-c2nc(C(=O)Nc3cnccc3C3C[C@@H](N)[C@H](O)[C@@H](C(C)C)O3)ccc2F)c1F (stereo in doubt) [Example 316, N-(4-((2S,4R,5S,6R)-4-amino-5-hydroxy-6-isopropyltetrahydro-2H-pyran-2-yl)pyridin-3-yl)-6-(2,6-difluoro-3-(methylcarbamoyl)phenyl)-5-fluoropicolinamide] | 5.76 | 0.27 | 5.1 | 4390 | 60
2 | CSc1ccc(F)c(-c2nc(C(=O)Nc3cnccc3[C@H]3C[C@@H](N)[C@](C)(O)[C@@H](C)O3)ccc2F)c1F [Example 327, N-(4-((2R,4R,5S,6R)-4-amino-5-hydroxy-5,6-dimethyltetrahydro-2H-pyran-2-yl)pyridin-3-yl)-6-(2,6-difluoro-3-(methylthio)phenyl)-5-fluoropicolinamide] | 2.6 | 0.07 | 18.8 | 640 | 310
3 | COCCOc1cc(F)c(-c2nc(C(=O)Nc3cnccc3[C@@H]3C[C@@H](N)CC(C)(C)O3)ccc2F)c(F)c1 [Example 315, N-(4-((2S,4R)-4-amino-6,6-dimethyltetrahydro-2H-pyran-2-yl)pyridin-3-yl)-6-(2,6-difluoro-4-(2-methoxyethoxy)phenyl)-5-fluoropicolinamide] | 1.5 | 0.07 | 11.7 | 121 | 200
4 | CS(=O)(=O)c1cc(F)c(-c2nc(C(=O)Nc3cnccc3[C@@H]3C[C@H](N)[C@@H](O)[C@H](C4CC4)O3)ccc2F)c(F)c1 [Example 326, N-(4-((2S,4S,5R,6S)-4-amino-6-cyclopropyl-5-hydroxytetrahydro-2H-pyran-2-yl)pyridin-3-yl)-6-(2,6-difluoro-4-(methylsulfonyl)phenyl)-5-fluoropicolinamide] | 1930 | 27.5 | 2200 | > 25000 | > 10000
5 | Cc1cc(F)c(-c2nc(C(=O)Nc3cnccc3[C@H]3C[C@@H](N)[C@H](O)[C@@H](C4CC4)O3)ccc2F)c(F)c1 [Example 322, N-(4-((2R,4R,5S,6R)-4-amino-6-cyclopropyl-5-hydroxytetrahydro-2H-pyran-2-yl)pyridin-3-yl)-6-(2,6-difluoro-4-methylphenyl)-5-fluoropicolinamide] | 9 | 0.3 | 6.7 | 5240 | 230
6 | Cc1cc(F)c(-c2nc(C(=O)Nc3cnccc3[C@@H]3C[C@H](N)[C@@H](O)[C@H](C4CC4)O3)ccc2F)c(F)c1 [Example 324, N-(4-((2S,4S,5R,6S)-4-amino-6-cyclopropyl-5-hydroxytetrahydro-2H-pyran-2-yl)pyridin-3-yl)-6-(2,6-difluoro-4-methylphenyl)-5-fluoropicolinamide] | 184 | 3.4 | 396 | > 25000 | 4320
7 | COc1cc(F)c(-c2nc(C(=O)Nc3cnccc3[C@H]3C[C@@H](N)[C@H](O)[C@@H](C4CC4)O3)ccc2F)c(F)c1 [Example 323, N-(4-((2R,4R,5S,6R)-4-amino-6-cyclopropyl-5-hydroxytetrahydro-2H-pyran-2-yl)pyridin-3-yl)-6-(2,6-difluoro-4-methoxyphenyl)-5-fluoropicolinamide] | 9.7 | 0.3 | 13.4 | 4200 | 190
8 | CC(C)[C@H]1OC(c2ccncc2NC(=O)c2ccc(F)c(-c3c(F)ccc(C(=O)N(C)C)c3F)n2)C[C@@H](N)[C@@H]1O (stereo in doubt) [Example 317, N-(4-((2S,4R,5S,6R)-4-amino-5-hydroxy-6-isopropyltetrahydro-2H-pyran-2-yl)pyridin-3-yl)-6-(3-(dimethylcarbamoyl)-2,6-difluorophenyl)-5-fluoropicolinamide] | 9.6 | 1 | 6.6 | > 25000 | 80
9 | C[C@H]1O[C@@H](c2ccncc2NC(=O)c2ccc(F)c(-c3ccc(S(C)(=O)=O)cc3)n2)C[C@@H](N)[C@]1(C)O [Example 321, N-(4-((2R,4R,5S,6R)-4-amino-5-hydroxy-5,6-dimethyltetrahydro-2H-pyran-2-yl)pyridin-3-yl)-5-fluoro-6-(4-(methylsulfonyl)phenyl)picolinamide] | 783 | 4.7 | 1370 | 1880 | > 10000
10 | C[C@H]1O[C@@H](c2ccncc2NC(=O)c2ccc(F)c(-c3ccccc3)n2)C[C@@H](N)[C@]1(C)O [Example 320, N-(4-((2R,4R,5S,6R)-4-amino-5-hydroxy-5,6-dimethyltetrahydro-2H-pyran-2-yl)pyridin-3-yl)-5-fluoro-6-phenylpicolinamide] | 42 | 1 | 245 | 3250 | 4670
11 | CC1(C)C[C@H](N)C[C@@H](c2ccncc2NC(=O)c2ccc(F)c(-c3c(F)cc(OCCO)cc3F)n2)O1 [Example 314, N-(4-((2S,4R)-4-amino-6,6-dimethyltetrahydro-2H-pyran-2-yl)pyridin-3-yl)-6-(2,6-difluoro-4-(2-hydroxyethoxy)phenyl)-5-fluoropicolinamide] | 1.1 | 0.05 | 7.5 | 109 | 60
12 | C[C@@H]1O[C@H](c2ccncc2NC(=O)c2ccc(F)c(-c3c(F)cccc3F)n2)C[C@H](N)[C@@]1(C)O [Example 220, N-(4-((2S,4S,5R,6S)-4-amino-5-hydroxy-5,6-dimethyltetrahydro-2H-pyran-2-yl)pyridin-3-yl)-6-(2,6-difluorophenyl)-5-fluoropicolinamide] | 29.9 | 2.09 | 228 | 9140 | 6210
13 | C[C@H]1O[C@@H](c2ccncc2NC(=O)c2nn(Cc3ccccc3)cc2N)C[C@@H](O)[C@]1(C)O [Example 218, 4-amino-1-benzyl-N-(4-((2R,4R,5S,6R)-4,5-dihydroxy-5,6-dimethyltetrahydro-2H-pyran-2-yl)pyridin-3-yl)-1H-pyrazole-3-carboxamide] | > 25000 | 12500 | > 25000 | 1290 | > 10000
14 | COCCOc1cc(F)c(-c2nc(C(=O)Nc3cnccc3C3C[C@@H](N)[C@H](O)[C@@H](C(C)C)O3)ccc2F)c(F)c1 (stereo in doubt) [Example 318, N-(4-((2S,4R,5S,6R)-4-amino-5-hydroxy-6-isopropyltetrahydro-2H-pyran-2-yl)pyridin-3-yl)-6-(2,6-difluoro-4-(2-methoxyethoxy)phenyl)-5-fluoropicolinamide] | 1.7 | 0.05 | 2.3 | 1160 | 80
15 | COc1cc(F)c(-c2nc(C(=O)Nc3cnccc3[C@@H]3C[C@H](N)[C@@H](O)[C@H](C4CC4)O3)ccc2F)c(F)c1 [Example 325, N-(4-((2S,4S,5R,6S)-4-amino-6-cyclopropyl-5-hydroxytetrahydro-2H-pyran-2-yl)pyridin-3-yl)-6-(2,6-difluoro-4-methoxyphenyl)-5-fluoropicolinamide] | 181 | 4 | 504 | > 25000 | 5470
16 | CC(C)[C@H]1OC(c2ccncc2NC(=O)c2ccc(F)c(-c3c(F)cc(OCCO)cc3F)n2)C[C@@H](N)[C@@H]1O (stereo in doubt) [Example 319, N-(4-((2S,4R,5S,6R)-4-amino-5-hydroxy-6-isopropyltetrahydro-2H-pyran-2-yl)pyridin-3-yl)-6-(2,6-difluoro-4-(2-hydroxyethoxy)phenyl)-5-fluoropicolinamide] | 1.8 | 0.07 | 3.5 | 1570 | 30
